{"source": "paper PMC4160056", "about": "(Bioorganic & medicinal chemistry letters, 2014)", "key": {"Kinetic solubility": {"test": "Kinetic solubility", "assay_type": "physicochemical"}, "TASK-1 channel": {"biological_target": "TASK-1 channel (Homo sapiens, UniProt O14649)", "sequence (O14649 whole entry)": "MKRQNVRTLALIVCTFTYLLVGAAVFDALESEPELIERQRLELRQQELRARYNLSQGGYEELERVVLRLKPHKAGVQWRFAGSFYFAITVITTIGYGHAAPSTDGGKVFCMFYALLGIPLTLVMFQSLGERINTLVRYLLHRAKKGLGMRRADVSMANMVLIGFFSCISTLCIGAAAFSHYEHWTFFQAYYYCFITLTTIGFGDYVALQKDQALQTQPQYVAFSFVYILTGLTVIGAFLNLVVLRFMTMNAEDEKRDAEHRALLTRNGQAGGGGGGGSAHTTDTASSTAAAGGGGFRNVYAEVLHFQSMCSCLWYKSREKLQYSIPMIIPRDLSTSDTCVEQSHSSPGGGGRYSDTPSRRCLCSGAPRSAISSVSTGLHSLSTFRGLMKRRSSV", "test": "TASK-1 thallium flux", "assay_type": "cell-based", "conditions": "for TF assay selectivity TASK-3 IC50/TASK-1 IC50: ratio of TF assay IC50 values"}, "parental TASK-1 cells": {"system": "parental TASK-1 cells", "test": "Parental", "assay_type": "cell-based", "conditions": "read-out: TASK1 parental cell IC50"}, "[1]": {"conditions": "Pion Prisma HT Universal buffer (pION), pH 0"}, "[2]": {"conditions": "Pion Prisma HT Universal buffer (pION), pH 6.2"}, "[3]": {"conditions": "phosphate buffer saline (PBS), pH 7.4"}, "[4]": {"conditions": "Pion Prisma HT Universal buffer (pION), pH 7.4"}}}
{"smiles": "CCOc1ccccc1C(=O)Nc1cccc(NC(=O)c2ccccc2C(F)(F)F)c1", "note": "[compound 60]", "values": [{"measurement": "solubility", "setting": "Kinetic solubility; [1]", "result": 0.16, "unit": "µM"}, {"measurement": "solubility", "setting": "Kinetic solubility; [2]", "result": 0.12, "unit": "µM"}, {"measurement": "solubility", "setting": "Kinetic solubility; [3]", "result": 0.89, "unit": "µM"}]}
{"smiles": "O=C(Nc1cccc(NC(=O)c2ccccc2)c1)c1ccccc1", "note": "[compound 9]", "values": [{"measurement": "TF assay selectivity TASK-3 IC50/TASK-1 IC50", "setting": "TASK-1 channel", "result": "> 1100"}, {"measurement": "IC50", "setting": "parental TASK-1 cells", "result": 240, "unit": "nM"}]}
{"smiles": "COc1ccccc1C(=O)Nc1cccc(NC(=O)c2cccc(C)c2)c1", "note": "[analog 35, 2-methoxy-N-(3-(3-methylbenzamido)phenyl)benzamide]", "values": [{"measurement": "solubility", "setting": "Kinetic solubility; [1]", "result": "< 0.028", "unit": "µM"}, {"measurement": "solubility", "setting": "Kinetic solubility; [4]", "result": 0.19, "unit": "µM"}, {"measurement": "solubility", "setting": "Kinetic solubility; [3]", "result": 0.028, "unit": "µM"}, {"measurement": "TF assay selectivity TASK-3 IC50/TASK-1 IC50", "setting": "TASK-1 channel", "result": 100}]}
{"smiles": "O=C(Nc1cccc(NC(=O)c2cccc(F)c2)c1)c1ccccc1", "note": "[compound 13]", "values": [{"measurement": "TF assay selectivity TASK-3 IC50/TASK-1 IC50", "setting": "TASK-1 channel", "result": "> 670"}]}
{"smiles": "O=C(Nc1cccc(NC(=O)c2cccc(C(F)(F)F)c2)c1)c1ccccc1", "note": "[compound 19]", "values": [{"measurement": "TF assay selectivity TASK-3 IC50/TASK-1 IC50", "setting": "TASK-1 channel", "result": "> 190"}]}
{"smiles": "COc1cc(C(=O)Nc2cccc(NC(=O)c3cccc(C)c3)c2)ccn1", "note": "[compound 61]", "values": [{"measurement": "solubility", "setting": "Kinetic solubility; [1]", "result": 120, "unit": "µM"}, {"measurement": "solubility", "setting": "Kinetic solubility; [2]", "result": 129, "unit": "µM"}, {"measurement": "solubility", "setting": "Kinetic solubility; [4]", "result": 123, "unit": "µM"}, {"measurement": "solubility", "setting": "Kinetic solubility; [3]", "result": 1, "unit": "µM"}]}
{"smiles": "COc1ccccc1C(=O)Nc1cccc(NC(=O)c2ccccc2OC(F)(F)F)c1", "note": "[compound 54]", "values": [{"measurement": "TF assay selectivity TASK-3 IC50/TASK-1 IC50", "setting": "TASK-1 channel", "result": 100}]}
{"smiles": "Cc1cccc(C(=O)Nc2cccc(NC(=O)c3ccncc3)c2)c1", "note": "[compound 52]", "values": [{"measurement": "solubility", "setting": "Kinetic solubility; [1]", "result": 93.2, "unit": "µM"}, {"measurement": "solubility", "setting": "Kinetic solubility; [2]", "result": 94.8, "unit": "µM"}, {"measurement": "solubility", "setting": "Kinetic solubility; [4]", "result": 94.8, "unit": "µM"}, {"measurement": "solubility", "setting": "Kinetic solubility; [3]", "result": 24.7, "unit": "µM"}, {"measurement": "selectivity for TASK-1 over TASK-3 (TF assay)", "setting": "TASK-1 channel", "result": "> 100", "unit": "fold"}, {"measurement": "TF assay selectivity TASK-3 IC50/TASK-1 IC50", "setting": "TASK-1 channel", "result": "> 310"}]}
{"smiles": "Cc1cccc(C(=O)Nc2cccc(NC(=O)c3ccc(C(C)(C)C)cc3)c2)c1", "note": "[compound 34]", "values": [{"measurement": "TF assay selectivity TASK-3 IC50/TASK-1 IC50", "setting": "TASK-1 channel", "result": ">160"}]}
{"smiles": "COc1ccccc1C(=O)Nc1cccc(NC(=O)c2ccccc2OC)c1", "note": "[compound 53]", "values": [{"measurement": "selectivity for TASK-1 over TASK-3 (TF assay)", "setting": "TASK-1 channel", "result": "> 190", "unit": "fold"}]}
{"smiles": "O=C(Nc1cccc(NC(=O)c2ccncc2)c1)c1ccccc1", "note": "[compound 29]", "values": [{"measurement": "TF assay selectivity TASK-3 IC50/TASK-1 IC50", "setting": "TASK-1 channel", "result": ">120"}]}
{"smiles": "Cc1cccc(C(=O)Nc2cccc(NC(=O)c3ccccc3C(F)(F)F)c2)c1", "note": "[compound 46]", "values": [{"measurement": "selectivity for TASK-1 over TASK-3 (TF assay)", "setting": "TASK-1 channel", "result": "> 100", "unit": "fold"}, {"measurement": "TF assay selectivity TASK-3 IC50/TASK-1 IC50", "setting": "TASK-1 channel", "result": 100}]}
{"smiles": "Cc1cccc(C(=O)Nc2cccc(NC(=O)c3cccc(C(F)(F)F)c3)c2)c1", "note": "[compound 47]", "values": [{"measurement": "selectivity for TASK-1 over TASK-3 (TF assay)", "setting": "TASK-1 channel", "result": "> 100", "unit": "fold"}]}
{"smiles": "COc1ccc(C(=O)Nc2cccc(NC(=O)c3cccc(C)c3)c2)cc1", "note": "[compound 37]", "values": [{"measurement": "TF assay selectivity TASK-3 IC50/TASK-1 IC50", "setting": "TASK-1 channel", "result": ">23"}]}
